# PMC11078746 (Nature, 2024)
# Like-named read-outs stand apart in the source and are kept apart here.
# Legend:
# 102 common targets = assay: Safety pharmacology panel; details: all except COX1
# CYP3A4 = CYP3A4 (Homo sapiens, UniProt P08684); assay: CYP3A4 TDI; type: in vitro ADME
# MSI cancer cells = assay: Clonogenic assay, 10-to-14-day; type: cell-based; details: Homo sapiens, 10-to-14-day clonogenic assay
# HEC265 = assay: CFA 10-14 day clonogenic assay; type: cell-based; details: Homo sapiens
# HEC108 = assay: CFA 10-14 day clonogenic assay; type: cell-based; details: Homo sapiens
# HEC151 = assay: CFA 10-14 day clonogenic assay; type: cell-based; details: Homo sapiens
# OC314 = assay: CFA 10-14 day clonogenic assay; type: cell-based; details: Homo sapiens, OC-314
# EN = assay: CFA 10-14 day clonogenic assay; type: cell-based; details: Homo sapiens
# HCT116 = assay: 4 day proliferation assay (CellTiter-Glo)
# CAL33 = assay: 4 day proliferation assay (CellTiter-Glo); details: Homo sapiens, CAL-33, 96 h, read-out: 4 day assay GI50
# SNU1 = assay: 4 day proliferation assay (CellTiter-Glo); details: Homo sapiens, SNU1, 96 h, read-out: 4 day assay GI50
# Sequence of CYP3A4 (P08684 whole entry, species assumed): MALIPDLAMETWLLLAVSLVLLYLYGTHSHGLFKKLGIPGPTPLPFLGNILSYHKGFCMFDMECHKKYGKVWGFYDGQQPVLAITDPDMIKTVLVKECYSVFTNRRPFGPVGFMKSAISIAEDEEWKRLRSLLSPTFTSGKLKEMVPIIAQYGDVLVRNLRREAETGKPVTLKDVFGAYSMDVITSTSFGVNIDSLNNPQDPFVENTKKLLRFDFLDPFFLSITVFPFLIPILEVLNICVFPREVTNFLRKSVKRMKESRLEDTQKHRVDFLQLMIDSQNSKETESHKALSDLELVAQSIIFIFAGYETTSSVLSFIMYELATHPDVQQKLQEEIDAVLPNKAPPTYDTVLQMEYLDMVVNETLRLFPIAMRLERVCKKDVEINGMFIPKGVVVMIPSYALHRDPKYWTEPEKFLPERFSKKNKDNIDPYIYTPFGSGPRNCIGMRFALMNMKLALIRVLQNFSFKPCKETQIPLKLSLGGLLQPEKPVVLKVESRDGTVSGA
structure (smiles),measurement,setting,value
CCc1c(N2CCN(C(=O)c3ncnc(C)c3O)CC2)c(=O)n2nc(C3=CCOCC3)nc2n1CC(=O)Nc1ccc(C(F)(F)F)cc1Cl [HRO761],Safety pharmacology panel (102 common targets),102 common targets,> 30 μM
same,CYP3A4 TDI,CYP3A4,No TDI
same,GI50,MSI cancer cells,50 to 1000 nM
same,GI50,HEC265,61 nM
same,GI50,HEC108,104 nM
same,GI50,HEC151,303 nM
same,GI50,OC314,4630 nM
same,GI50,EN,≥ 10000 nM
same,GI50,"HCT116; Homo sapiens, HCT-116, 96 h, read-out: 4 day assay GI50, HCT116",116 nM
same,GI50,"HCT116; read-out: 4 day assay GI50, HCT116",143 nM
same,GI50,CAL33,≥ 10000 nM
same,GI50,SNU1,≥ 10000 nM
